Experimental data taken from PubChem BioAssay (NCI).
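Values below derive from 48-hour exposures of cells grown in 96-well plates, with endpoints linearly interpolated between the two concentrations bracketing the appropriate inhibition level. Definition used: TGI = concentration required for complete inhibition of growth.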

What was measured:
Test in all cases: NCI anticancer screen, dose series, 48 h
DU-145 prostate = system: DU-145 prostate
OVCAR-4 ovarian = system: OVCAR-4 ovarian
SK-MEL-2 melanoma = system: SK-MEL-2 melanoma
A549 NSCLC = system: A549 NSCLC
M14 melanoma = system: M14 melanoma
PC-3 prostate = system: PC-3 prostate
UACC-62 melanoma = system: UACC-62 melanoma
EKVX NSCLC = system: EKVX NSCLC
SK-OV-3 ovarian = system: SK-OV-3 ovarian
NCI-H226 lung = system: NCI-H226 lung
UACC-257 melanoma = system: UACC-257 melanoma
HS 578T breast = system: HS 578T breast
ACHN renal = system: ACHN renal
OVCAR-5 ovarian = system: OVCAR-5 ovarian
SK-MEL-5 melanoma = system: SK-MEL-5 melanoma
HL-60(TB) leukemia = system: HL-60(TB) leukemia
SF-268 CNS = system: SF-268 CNS
NCI/ADR-RES ovarian = system: NCI/ADR-RES ovarian
MDA-MB-231 breast = system: MDA-MB-231 breast
KM12 colon = system: KM12 colon

| Compound | TGI (DU-145 prostate) | TGI (OVCAR-4 ovarian) | TGI (SK-MEL-2 melanoma) | TGI (A549 NSCLC) | TGI (M14 melanoma) | TGI (PC-3 prostate) | TGI (UACC-62 melanoma) | TGI (EKVX NSCLC) | TGI (SK-OV-3 ovarian) | TGI (NCI-H226 lung) | TGI (UACC-257 melanoma) | TGI (HS 578T breast) | TGI (ACHN renal) | TGI (OVCAR-5 ovarian) | TGI (SK-MEL-5 melanoma) | TGI (HL-60(TB) leukemia) | TGI (SF-268 CNS) | TGI (NCI/ADR-RES ovarian) | TGI (MDA-MB-231 breast) | TGI (KM12 colon) |
| --- | --- | --- | --- | --- | --- | --- | --- | --- | --- | --- | --- | --- | --- | --- | --- | --- | --- | --- | --- | --- |
| CCC1(C(=O)OC(C)(C)C)OC12C(C)CCCC2C (stereo unspecified) | > 100 µM | > 100 µM | > 100 µM | > 100 µM | > 100 µM | > 100 µM | > 100 µM | > 100 µM | > 100 µM | > 100 µM | > 100 µM | > 100 µM | 54.2 µM | > 100 µM | > 100 µM | 37 µM | > 100 µM | > 100 µM | > 100 µM | > 100 µM |
| CCn1nc2c3c(ncn3C(C)(C)O2)c1=O | > 100 µM | > 100 µM | > 100 µM | > 100 µM | > 100 µM | > 100 µM | > 100 µM | > 100 µM | > 100 µM | > 100 µM | > 100 µM | > 100 µM | > 100 µM | > 100 µM | > 100 µM | > 100 µM | > 100 µM | > 100 µM | > 100 µM | > 100 µM |
| O=C(OCC1OC2OC(c3ccccc3)(n3ccc4c([N+](=O)[O-])ccnc43)OC2C1OC(=O)c1ccccc1)c1ccccc1 (stereo unspecified) | > 100 µM | > 100 µM | > 100 µM | > 100 µM | > 100 µM | > 100 µM | > 100 µM | > 100 µM | > 100 µM | > 100 µM | > 100 µM | > 100 µM | > 100 µM | > 100 µM | > 100 µM | > 100 µM |  | > 100 µM | > 100 µM | > 100 µM |
| Nc1cccc(Nc2nc3ccccc3nc2NS(=O)(=O)c2ccccc2)c1 | > 100 µM | 46.5 µM | 31.3 µM | > 100 µM | 71.8 µM | 49.7 µM | 46.1 µM | > 100 µM | > 100 µM | > 100 µM | > 100 µM | > 100 µM | > 100 µM | > 100 µM | 29.8 µM | 46.6 µM | > 100 µM | > 100 µM | 36 µM | 41.7 µM |
| CCOC(=O)/C=C(/C(=O)OCC)n1ccc(N)nc1=O | > 100 µM | > 100 µM | > 100 µM | > 100 µM | > 100 µM | > 100 µM | > 100 µM | > 100 µM | > 100 µM | > 100 µM | > 100 µM | > 100 µM | > 100 µM | > 100 µM | > 100 µM | > 100 µM | > 100 µM | > 100 µM | > 100 µM | > 100 µM |
| CC1=NN2C(=N)/C(=C/c3ccco3)C(=O)N=C2S1 | > 100 µM | > 100 µM | > 100 µM | > 100 µM | > 100 µM | > 100 µM | > 100 µM | > 100 µM | > 100 µM | > 100 µM | > 100 µM | > 100 µM | > 100 µM | > 100 µM | > 100 µM | > 100 µM | > 100 µM | > 100 µM | > 100 µM | > 100 µM |
| Cc1ccc2c(=O)cc(-c3cccs3)[nH]c2n1 | > 100 µM | > 100 µM | > 82.7 µM | > 100 µM | > 100 µM | > 95.8 µM | > 100 µM | > 100 µM | > 100 µM | 63.7 µM | > 100 µM | > 71.4 µM | > 100 µM | > 100 µM | > 81.9 µM | 25.5 µM | > 100 µM | 11.9 µM | > 100 µM | > 100 µM |
| COc1ccc(/C=N/N=C(\N)NO)c(O)c1 | > 10 µM | > 10 µM | > 10 µM | > 10 µM | > 10 µM | > 10 µM | > 10 µM | > 10 µM | > 10 µM | > 10 µM | > 10 µM | > 10 µM | > 10 µM | > 10 µM | > 10 µM | > 10 µM | > 10 µM | > 10 µM | > 10 µM | > 10 µM |
| O=c1nc2c(c(-c3ccccc3Cl)[nH]1)COC/C2=C\c1ccccc1Cl | > 100 µM | > 100 µM | > 100 µM |  | > 100 µM | > 100 µM | > 100 µM | 97.4 µM | > 100 µM | > 100 µM | > 100 µM | > 100 µM | > 100 µM | > 100 µM | > 100 µM | > 100 µM | > 100 µM | > 100 µM | > 100 µM | > 100 µM |
| O=C1c2ccccc2-c2nc(-c3cccc([N+](=O)[O-])c3)nnc21 | 17 µM | > 100 µM | 49.2 µM | 98.6 µM | 73.2 µM | > 100 µM | 32 µM | 61.1 µM | > 100 µM | 35.9 µM | 13.3 µM | > 100 µM | 16.7 µM | 50 µM | 7.65 µM | 16.8 µM | > 100 µM | 37 µM | > 100 µM | > 100 µM |
| NCCN=C(Nc1ccccc1)Nc1ccccc1 | > 100 µM | > 100 µM | > 100 µM | > 100 µM | > 100 µM | > 100 µM | > 100 µM | > 100 µM | > 100 µM | > 100 µM | > 100 µM | > 100 µM |  |  | > 100 µM | > 100 µM | > 100 µM | > 100 µM | > 100 µM | > 100 µM |
| CC(=O)c1ccc2c3c1[C@@H]1O[C@@H]1c1cccc(c1-3)[C@@H]1O[C@H]21 | 23.2 µM | 27.3 µM | > 57.1 µM | 37.4 µM | 22.3 µM | > 52.3 µM | 31.1 µM | 39.5 µM | 76.1 µM | > 95.1 µM | > 60.2 µM | 70.7 µM | 37.4 µM | 34.7 µM | 26 µM | 35 µM | 27.4 µM | > 74.6 µM | 42.9 µM | 21.4 µM |
